Assay results: patent US20070128217A1 (priority 2003, published 2007)

How the values were obtained:
[1] = tested on: control sera (pooled serum of ten healthy LUMC hospital workers; commercial negative donor pooled serum from the Dutch bloodbank); format: binding, human; set-up: Binding of Control serum LUMC to linear peptides / Binding of Control serum Blood-bank to linear peptides / Binding of Control serum LUMC to looped peptides / Binding of Control Serum Blood-Bank to Looped peptides / Binding of Control serum LUMC to linear peptides of the protein M of SARS-CoV Urbani / Binding of Control serum Blood-bank to linear peptides of the protein M of SARS-CoV Urbani / Binding of Control serum LUMC to looped peptides of the protein M of SARS-CoV Urbani / Binding of Control Serum Blood-Bank to Looped peptides of the protein M of SARS-CoV Urbani: unit not given here
[2] = tested on: antibodies in sera from SARS patients (sera 1a, 1b, 2, 6, 37, 62, London, SARS-yellow, SARS-green); format: binding, human; set-up: Binding of serum 6 to linear peptides of protein X1 of SARS-CoV Urbani / Binding of serum 37 to linear peptides of protein X1 of SARS-CoV Urbani / Binding of serum 6 to looped/cyclic peptide (PEPSCAN-ELISA) / Binding of serum 37 to looped/cyclic peptide (PEPSCAN-ELISA) / Binding of serum 37 to looped/cyclic peptides of protein X1 of SARS-CoV Urbani / Binding of serum 6 to linear peptides of protein X2 / Binding of serum 37 to linear peptides of protein X2 / Binding of serum 37 to looped/cyclic peptides of protein X2 of SARS-CoV Urbani / Binding of serum 6 to linear peptides of protein M of SARS-CoV Urbani / Binding of serum 37 to linear peptides of protein M of SARS-CoV Urbani / Binding of serum 6 to looped/cyclic peptides of protein M of SARS-CoV Urbani / Binding of serum 37 to looped/cyclic peptides of protein M of SARS-CoV Urbani / Binding of serum 6 to linear peptides of protein X3 of SARS-CoV Urbani / Binding of serum 37 to linear peptides of protein X3 of SARS-CoV Urbani / Binding of serum 37 to looped/cyclic peptides of protein X3 of SARS-CoV Urbani / Binding of serum 6 to linear peptides of protein X4 of SARS-CoV Urbani / Binding of serum 37 to linear peptides of protein X4 of SARS-CoV Urbani / Binding of serum 37 to looped/cyclic peptides of protein X4 of SARS-CoV Urbani / Binding of serum 6 to linear peptides of protein X5 of SARS-CoV Urbani / Binding of serum 37 to linear peptides of protein X5 of SARS-CoV Urbani / Binding of serum 37 to looped/cyclic peptides of protein X5 of SARS-CoV Urbani / Binding of serum 6 to linear peptides of protein N of SARS-CoV Urbani / Binding of serum 37 to linear peptides of protein N of SARS-CoV Urbani / Binding of serum 6 to linear peptide (PEPSCAN-ELISA) / Binding of serum 1a to looped/cyclic peptides of protein N of SARS-CoV Urbani / Binding of serum 1b to looped/cyclic peptides of protein N of SARS-CoV Urbani / Binding of serum 2 to looped/cyclic peptides of protein N of SARS-CoV Urbani / Binding of serum 6 to looped/cyclic peptides of protein N of SARS-CoV Urbani / Binding of serum 37 to looped/cyclic peptides of protein N of SARS-CoV Urbani / Binding of serum 62 to looped/cyclic peptides of protein N of SARS-CoV Urbani / Binding of serum London to looped/cyclic peptides of protein N of SARS-CoV Urbani / Binding of serum SARS-green to looped/cyclic peptides of protein N of SARS-CoV Urbani: unit not given here
[3] = tested on: recombinant human anti-SARS-CoV antibody 03-018; format: binding; set-up: Binding of antibody 03-018 to linear peptides of the N protein of SARS-CoV Urbani / Binding of antibody 03-018 to looped/cyclic peptides of the N protein of SARS-CoV Urbani: unit not given here
[4] = tested on: rabbit serum obtained by immunizing a rabbit with the SARS-CoV strain Frankfurt 1; format: binding; set-up: Binding of a rabbit serum to linear peptides / Binding of a rabbit serum to looped peptides / Rabbit serum linear peptides / Rabbit serum looped peptides / Binding of a rabbit serum to linear peptides of protein N of SARS-CoV Urbani (Rabbit serum linear peptides) / Binding of a rabbit serum to looped/cyclic peptides of protein N of SARS-CoV Urbani (Rabbit serum looped peptides): unit not given here

| Sequence | Binding of Control Serum Blood-Bank to Looped peptides [1] | Binding of Control serum Blood-bank to linear peptides [1] | Binding of Control serum LUMC to linear peptides [1] | Binding of Control serum LUMC to looped peptides [1] | Binding of serum 1a to linear peptides of protein N of SARS-CoV Urbani [2] | Binding of serum 1a to looped/cyclic peptides of protein N of SARS-CoV Urbani [2] | Binding of serum 1b to linear peptides of protein N of SARS-CoV Urbani [2] | Binding of serum 1b to looped/cyclic peptides of protein N of SARS-CoV Urbani [2] | Binding of serum 2 to linear peptides of protein N of SARS-CoV Urbani [2] | Binding of serum 2 to looped/cyclic peptides of protein N of SARS-CoV Urbani [2] | Binding of serum 6 to linear peptides of protein N of SARS-CoV Urbani [2] | Binding of serum 6 to looped/cyclic peptides of protein N of SARS-CoV Urbani [2] | Binding of serum 37 to linear peptides of protein N of SARS-CoV Urbani [2] | Binding of serum 37 to looped/cyclic peptides of protein N of SARS-CoV Urbani [2] | Binding of serum 62 to linear peptides of protein N of SARS-CoV Urbani [2] | Binding of serum 62 to looped/cyclic peptides of protein N of SARS-CoV Urbani [2] | Binding of serum London to linear peptides of protein N of SARS-CoV Urbani [2] | Binding of serum London to looped/cyclic peptides of protein N of SARS-CoV Urbani [2] | Binding of serum SARS-green to linear peptides of protein N of SARS-CoV Urbani [2] | Binding of serum SARS-green to looped/cyclic peptides of protein N of SARS-CoV Urbani [2] | further results |
| --- | --- | --- | --- | --- | --- | --- | --- | --- | --- | --- | --- | --- | --- | --- | --- | --- | --- | --- | --- | --- | --- |
| GGDGKMKELSPRWYF | 0.8 | 0.8 | 0.7 | 0.7 | 0.3 | 0.3 | 0.1 | 0.2 | 0.2 | 0.6 | 0.2 | 0.3 | 0.6 | 0.6 | 0.7 | 0.6 | 0.4 | 0.5 | 0.2 | 0.5 | Binding of serum SARS-yellow to linear peptides of protein N of SARS-CoV Urbani [2]: 0.7; Binding of serum SARS-yellow to looped/cyclic peptides of protein N of SARS-CoV Urbani [2]: 0.6; Binding of antibody 03-018 to linear peptides of the N protein of SARS-CoV Urbani [3]: 0.1; Binding of antibody 03-018 to looped/cyclic peptides of the N protein of SARS-CoV Urbani [3]: 0.2; Binding of a rabbit serum to linear peptides of protein N of SARS-CoV Urbani (Rabbit serum linear peptides) [4]: 0.1; Binding of a rabbit serum to looped/cyclic peptides of protein N of SARS-CoV Urbani (Rabbit serum looped peptides) [4]: 0.5 |
| GGPTDSTDNNQNGGR | 0.5 | 0.7 | 0.8 | 0.5 | 0.3 | 0.3 | 0.1 | 0.1 | 0.3 | 0.4 | 0.2 | 0.2 | 0.7 | 0.5 | 0.7 | 0.3 | 0.6 | 0.3 | 0.6 | 0.2 | Binding of serum SARS-yellow to linear peptides of protein N of SARS-CoV Urbani [2]: 0.6; Binding of serum SARS-yellow to looped/cyclic peptides of protein N of SARS-CoV Urbani [2]: 0.2; Binding of antibody 03-018 to linear peptides of the N protein of SARS-CoV Urbani [3]: 0.1; Binding of antibody 03-018 to looped/cyclic peptides of the N protein of SARS-CoV Urbani [3]: 0.2; Binding of a rabbit serum to linear peptides of protein N of SARS-CoV Urbani (Rabbit serum linear peptides) [4]: 0.1; Binding of a rabbit serum to looped/cyclic peptides of protein N of SARS-CoV Urbani (Rabbit serum looped peptides) [4]: 0.1 |
| GGRNGARPKQRRPQG | 0.5 | 0.7 | 0.6 | 0.5 | 0.3 | 0.2 | 0.2 | 0.1 | 0.3 | 0.2 | 0.2 | 0.2 | 0.7 | 0.4 | 0.8 | 0.3 | 0.5 | 0.2 | 2.6 | 0.2 | Binding of serum SARS-yellow to linear peptides of protein N of SARS-CoV Urbani [2]: 0.6; Binding of serum SARS-yellow to looped/cyclic peptides of protein N of SARS-CoV Urbani [2]: 0.2; Binding of antibody 03-018 to linear peptides of the N protein of SARS-CoV Urbani [3]: 0.2; Binding of antibody 03-018 to looped/cyclic peptides of the N protein of SARS-CoV Urbani [3]: 0.2; Binding of a rabbit serum to linear peptides of protein N of SARS-CoV Urbani (Rabbit serum linear peptides) [4]: 0.2; Binding of a rabbit serum to looped/cyclic peptides of protein N of SARS-CoV Urbani (Rabbit serum looped peptides) [4]: 0.8 |
| GKEELRFPRGQGVPI | 0.9 | 0.9 | 0.8 | 0.9 | 0.3 | 0.5 | 0.1 | 0.4 | 0.3 | 0.8 | 0.2 | 0.3 | 0.7 | 0.9 | 0.7 | 1.1 | 0.5 | 0.6 | 0.6 | 0.9 | Binding of serum SARS-yellow to linear peptides of protein N of SARS-CoV Urbani [2]: 0.6; Binding of serum SARS-yellow to looped/cyclic peptides of protein N of SARS-CoV Urbani [2]: 0.7; Binding of antibody 03-018 to linear peptides of the N protein of SARS-CoV Urbani [3]: 0.1; Binding of antibody 03-018 to looped/cyclic peptides of the N protein of SARS-CoV Urbani [3]: 0.3; Binding of a rabbit serum to linear peptides of protein N of SARS-CoV Urbani (Rabbit serum linear peptides) [4]: 0.1; Binding of a rabbit serum to looped/cyclic peptides of protein N of SARS-CoV Urbani (Rabbit serum looped peptides) [4]: 0.6 |
